Results reported in patent publication US6737383B1, “Herbicidal oxadiazolidines” (priority 1999, dated 2004).

How the values were obtained:
bedstraw = assay: Test B pre/postemergence bedstraw; assay type: in vivo, Galium aparine
How it was run: (§1)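 Herbicidal effect was estimated by eye on a ten-point control scale after plants spent twelve to sixteen days in a greenhouse following soil or foliar treatment. Foliar sprays targeted plants at one to four leaves; all doses were formulated in a non-phytotoxic solvent with surfactant.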

blackgrass = assay: Test B pre/postemergence blackgrass; assay type: in vivo, Alopecurus myosuroides
How it was run: as §1

surinam grass = assay: Test B pre/postemergence surinam grass; assay type: in vivo, Brachiaria decumbens
How it was run: as §1

cocklebur = assay: Test B pre/postemergence cocklebur; assay type: in vivo, Xanthium strumarium
How it was run: as §1

corn = assay: Test B pre/postemergence corn; assay type: in vivo, Zea mays
How it was run: as §1

crabgrass = assay: Test B pre/postemergence crabgrass; assay type: in vivo, Digitaria sanguinalis
How it was run: as §1

giant foxtail = assay: Test B pre/postemergence giant foxtail; assay type: in vivo, Setaria faberii
How it was run: as §1

morningglory = assay: Test B pre/postemergence morningglory; assay type: in vivo, Ipomoea hederacea
How it was run: as §1

pigweed = assay: Test B pre/postemergence pigweed; assay type: in vivo, Amaranthus retroflexus
How it was run: as §1

rape = assay: Test B pre/postemergence rape; assay type: in vivo, Brassica napus
How it was run: as §1

soybean = assay: Test B pre/postemergence soybean; assay type: in vivo, Glycine max
How it was run: as §1

sugar beet = assay: Test B pre/postemergence sugar beet; assay type: in vivo, Beta vulgaris
How it was run: as §1

velvetleaf = assay: Test B pre/postemergence velvetleaf; assay type: in vivo, Abutilon theophrasti
How it was run: as §1

wheat = assay: Test B pre/postemergence wheat; assay type: in vivo, Triticum aestivum
How it was run: as §1

wild oat = assay: Test B pre/postemergence wild oat; assay type: in vivo, Avena fatua
How it was run: as §1

purple nutsedge = assay: Test B pre/postemergence purple nutsedge; assay type: in vivo, Cyperus rotundus
How it was run: as §1

rice = assay: Test B flood test rice; assay type: in vivo, Oryza sativa
How it was run: (§2)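 Flood test on plants grown to the 2-leaf stage; treated plants kept in greenhouse twelve to sixteen days, then visually rated against controls on a 0 (no effect) to 10 (complete control) scale.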

smallflower flatsedge = assay: Test B flood test smallflower flatsedge; assay type: in vivo, Cyperus difformis
How it was run: as §2

duck salad = assay: Test B flood test duck salad; assay type: in vivo, Heteranthera limosa
How it was run: as §2

bamyardgrass = assay: Test B flood test barnyardgrass; assay type: in vivo, Echinochloa crus-galli
How it was run: as §2

[1] = Preemergence, Rate 62 g/ha, scale of 0 to 10 where 0 is no effect and 10 is complete control
[2] = Preemergence, Rate 250 g/ha, scale of 0 to 10 where 0 is no effect and 10 is complete control
[3] = Preemergence, Rate 500 g/ha, scale of 0 to 10 where 0 is no effect and 10 is complete control
[4] = Rate 62 g/ha, Postemergence, scale of 0 to 10 where 0 is no effect and 10 is complete control
[5] = Rate 125 g/ha, Postemergence, scale 0 to 10
[6] = Rate 500 g/ha, Postemergence, scale 0 to 10, 0 no effect, 10 complete control
[7] = Rate 125 g/ha, Preemergence, scale of 0 to 10 where 0 is no effect and 10 is complete control
[8] = Rate 62 g/ha, headed Pre-emergence (flood test species), scale 0 to 10 (0 no effect, 10 complete control)
[9] = Rate 125 g/ha, Pre-emergence, flood test species, scale 0 to 10 where 0 is no effect and 10 is complete control
[10] = Rate 250 g/ha, Pre-emergence, flood-test species, scale 0 to 10, 0 is no effect, 10 is complete control
[11] = Rate 500 g/ha, Pre-emergence, flood test species, scale 0 to 10 (0 no effect, 10 complete control)

Structure (SMILES): C=CCn1c(=O)on(C(=O)N(c2ccc(F)cc2)C2CCCCCC2)c1=O [Compound 249]
- Bedstraw plant response rating (bedstraw; [1]): 0
- Bedstraw plant response rating (bedstraw; [2]): 0
- Plant response rating, Bedstraw (bedstraw; [3]): 0
- Bedstraw plant response rating (bedstraw; [4]): 0
- Bedstraw plant response rating (bedstraw; [5]): 0
- Plant response rating (0 to 10; 0 is no effect, 10 is complete control), Bedstraw (bedstraw; Rate 250 g/ha, Postemergence): 0
- Bedstraw plant response rating (bedstraw; [6]): 0
- Blackgrass plant response rating (blackgrass; [1]): 0
- Blackgrass plant response rating (blackgrass; [2]): 0
- Plant response rating, Blackgrass (blackgrass; [3]): 0
- Blackgrass plant response rating (blackgrass; [4]): 0
- Blackgrass plant response rating (blackgrass; [5]): 0
- Blackgrass plant response rating (blackgrass; [7]): 0
- Plant response rating (0 to 10; 0 is no effect, 10 is complete control), Blackgrass (blackgrass; Rate 250 g/ha, Postemergence): 0
- Blackgrass plant response rating (blackgrass; [6]): 0
- B. signalgrass plant response rating (surinam grass; [1]): 0
- B. signalgrass plant response rating (surinam grass; [2]): 0
- Plant response rating, B. signalgrass (surinam grass; [3]): 0
- B. signalgrass plant response rating (surinam grass; [4]): 0
- B. signalgrass plant response rating (surinam grass; Rate 125 g/ha, Postemergence, scale 0 (no effect) to 10 (complete control)): 0
- B. signalgrass plant response rating (surinam grass; [7]): 0
- Plant response rating (0 to 10; 0 is no effect, 10 is complete control), B. signalgrass (surinam grass; Rate 250 g/ha, Postemergence): 0
- B. signalgrass plant response rating (surinam grass; [6]): 0
- Cocklebur plant response rating (cocklebur; [1]): 0
- Cocklebur plant response rating (cocklebur; [2]): 0
- Plant response rating, Cocklebur (cocklebur; [3]): 0
- Cocklebur plant response rating (cocklebur; [4]): 0
- Cocklebur plant response rating (cocklebur; [5]): 0
- Cocklebur plant response rating (cocklebur; [7]): 0
- Plant response rating (0 to 10; 0 is no effect, 10 is complete control), Cocklebur (cocklebur; Rate 250 g/ha, Postemergence): 0
- Cocklebur plant response rating (cocklebur; [6]): 0
- Corn plant response rating (corn; [1]): 0
- Corn plant response rating (corn; [2]): 0
- Plant response rating, Corn (corn; [3]): 0
- Corn plant response rating (corn; [4]): 0
- Corn plant response rating (corn; [5]): 0
- Corn plant response rating (corn; [7]): 0
- Plant response rating (0 to 10; 0 is no effect, 10 is complete control), Corn (corn; Rate 250 g/ha, Postemergence): 0
- Corn plant response rating (corn; [6]): 0
- Crabgrass plant response rating (crabgrass; [1]): 0
- Crabgrass plant response rating (crabgrass; [2]): 0
- Plant response rating, Crabgrass (crabgrass; [3]): 2
- Crabgrass plant response rating (crabgrass; [7]): 0
- Plant response rating (0 to 10; 0 is no effect, 10 is complete control), Crabgrass (crabgrass; Rate 250 g/ha, Postemergence): 0
- Crabgrass plant response rating (crabgrass; [6]): 0
- Giant foxtail plant response rating (giant foxtail; [1]): 0
- Giant foxtail plant response rating (giant foxtail; [2]): 3
- Plant response rating, Giant foxtail (giant foxtail; [3]): 5
- Giant foxtail plant response rating (giant foxtail; [7]): 0
- Plant response rating (0 to 10; 0 is no effect, 10 is complete control), Giant foxtail (giant foxtail; Rate 250 g/ha, Postemergence): 0
- Giant foxtail plant response rating (giant foxtail; [6]): 0
- Morningglory plant response rating (morningglory; [1]): 0
- Morningglory plant response rating (morningglory; [2]): 0
- Plant response rating, Morningglory (morningglory; [3]): 0
- Morningglory plant response rating (morningglory; [7]): 0
- Plant response rating (0 to 10; 0 is no effect, 10 is complete control), Morningglory (morningglory; Rate 250 g/ha, Postemergence): 0
- Morningglory plant response rating (morningglory; [6]): 3
- Redroot pigweed plant response rating (pigweed; [1]): 0
- Redroot pigweed plant response rating (pigweed; [2]): 0
- Plant response rating, Redroot pigweed (pigweed; [3]): 0
- Redroot pigweed plant response rating (pigweed; [7]): 0
- Plant response rating (0 to 10; 0 is no effect, 10 is complete control), Redroot pigweed (pigweed; Rate 250 g/ha, Postemergence): 0
- Redroot pigweed plant response rating (pigweed; [6]): 3
- Rape plant response rating (rape; [1]): 0
- Rape plant response rating (rape; [2]): 0
- Plant response rating, Rape (rape; [3]): 0
- Rape plant response rating (rape; [7]): 0
- Plant response rating (0 to 10; 0 is no effect, 10 is complete control), Rape (rape; Rate 250 g/ha, Postemergence): 0
- Rape plant response rating (rape; [6]): 0
- Soybean plant response rating (soybean; [1]): 0
- Soybean plant response rating (soybean; [2]): 0
- Plant response rating, Soybean (soybean; [3]): 0
- Soybean plant response rating (soybean; [7]): 0
- Soybean plant response rating (soybean; [6]): 4
- Sugarbeets plant response rating (sugar beet; [1]): 0
- Sugarbeets plant response rating (sugar beet; [2]): 0
- Plant response rating, Sugarbeets (sugar beet; [3]): 0
- Sugarbeets plant response rating (sugar beet; [7]): 0
- Sugarbeets plant response rating (sugar beet; [6]): 2
- Velvetleaf plant response rating (velvetleaf; [1]): 0
- Velvetleaf plant response rating (velvetleaf; [2]): 0
- Plant response rating, Velvetleaf (velvetleaf; [3]): 0
- Velvetleaf plant response rating (velvetleaf; [7]): 0
- Velvetleaf plant response rating (velvetleaf; [6]): 0
- Wheat plant response rating (wheat; [1]): 0
- Wheat plant response rating (wheat; [2]): 0
- Plant response rating, Wheat (wheat; [3]): 0
- Wheat plant response rating (wheat; [7]): 0
- Wheat plant response rating (wheat; [6]): 0
- Wild oats plant response rating (wild oat; [1]): 0
- Wild oats plant response rating (wild oat; [2]): 0
- Plant response rating, Wild oats (wild oat; [3]): 0
- Wild oats plant response rating (wild oat; [7]): 0
- Wild oats plant response rating (wild oat; [6]): 0
- Nutsedge plant response rating (purple nutsedge; [1]): 0
- Nutsedge plant response rating (purple nutsedge; [2]): 0
- Plant response rating, Nutsedge (purple nutsedge; [3]): 0
- Nutsedge plant response rating (purple nutsedge; [7]): 0
- Plant response rating (0 to 10; 0 is no effect, 10 is complete control), Nutsedge (purple nutsedge; Rate 250 g/ha, Postemergence): 0
- Nutsedge plant response rating (purple nutsedge; [6]): 0
- Rice plant response rating (rice; [8]): 0
- Rice plant response rating (rice; [9]): 0
- Rice plant response rating (rice; [10]): 0
- Rice plant response rating (rice; [11]): 0
- S. Flatsedge plant response rating (smallflower flatsedge; [8]): 0
- S. Flatsedge plant response rating (smallflower flatsedge; [9]): 0
- S. Flatsedge plant response rating (smallflower flatsedge; [10]): 0
- S. Flatsedge plant response rating (smallflower flatsedge; [11]): 0
- Ducksalad plant response rating (duck salad; [8]): 0
- Ducksalad plant response rating (duck salad; [9]): 0
- Ducksalad plant response rating (duck salad; [10]): 0
- Ducksalad plant response rating (duck salad; [11]): 0
- Barnyardgrass plant response rating (bamyardgrass; [8]): 0
- Barnyardgrass plant response rating (bamyardgrass; [9]): 0
- Barnyardgrass plant response rating (bamyardgrass; [10]): 0
- Barnyardgrass plant response rating (bamyardgrass; [11]): 0
